Reference: ChEMBL document CHEMBL6087397, “H2S-releasing oridonin derivatives with improved antitumor activity by inhibiting the PI3K/AKT pathway” (Bioorg Med Chem, 2024)

How the values were obtained:
Assay type in all cases: functional, cell-based
A549 = assay: Antiproliferative activity against human A549 cells assessed as inhibition of cell proliferation incubated for 48 hrs by CCK-8 assay; conditions: A549, 48 h
MCF7 = assay: Antiproliferative activity against human MCF7 cells assessed as inhibition of cell proliferation incubated for 48 hrs by CCK-8 assay; conditions: MCF7, 48 h
PANC-1 = assay: Antiproliferative activity against human PANC-1 cells assessed as inhibition of cell proliferation incubated for 48 hrs by CCK-8 assay; conditions: PANC-1, 48 h
HepG2 = assay: Antiproliferative activity against human HepG2 cells assessed as inhibition of cell proliferation incubated for 48 hrs by CCK-8 assay; conditions: HepG2, 48 h
MIA PaCa-2 = assay: Antiproliferative activity against human MIA PaCa-2 cells assessed as inhibition of cell proliferation incubated for 48 hrs by CCK-8 assay; conditions: MIA PaCa-2, 48 h

SMILES	IC50 (A549)	IC50 (MCF7)	IC50 (PANC-1)	IC50 (HepG2)	IC50 (MIA PaCa-2)
O=C(O)c1ccc(N=C=S)cc1	> 40 µM	> 40 µM	> 40 µM	> 40 µM	> 40 µM
O=c1[nH]cc(F)c(=O)[nH]1 [FLUOROURACIL]	11.9 µM	25.1 µM	–	–	–
C=C1C(=O)[C@]23[C@H](OC(=O)CCC(=O)OCCCOC(=O)c4ccc(N=C=S)cc4)[C@H]1CC[C@H]2[C@@]12CO[C@]3(O)[C@@H](O)[C@@H]1C(C)(C)CCC2=O	16.3 µM	10.4 µM	–	–	–
C=C1C(=O)[C@]23[C@H](OC(=O)CCCC(=O)OCc4ccc(-c5nc(=O)ss5)cc4)[C@H]1CC[C@H]2[C@@]12CO[C@]3(O)[C@@H](O)[C@@H]1C(C)(C)CC[C@@H]2OC(C)=O	14.3 µM	13 µM	–	–	–
C=C1C(=O)[C@]23[C@H](OC(=O)CCCC(=O)OCCOC(=O)c4ccc(N=C=S)cc4)[C@H]1CC[C@H]2[C@@]12CO[C@]3(O)[C@@H](O)[C@@H]1C(C)(C)CCC2=O	32.4 µM	19.2 µM	–	–	–
C=C1C(=O)[C@]23[C@H](OC(=O)CCCC(=O)OCC#CCOC(=O)c4ccc(N=C=S)cc4)[C@H]1CC[C@H]2[C@@]12CO[C@]3(O)[C@@H](O)[C@@H]1C(C)(C)CC[C@@H]2O	> 40 µM	> 40 µM	–	–	–
C=C1C(=O)[C@]23[C@H](OC(=O)CCCC(=O)OCCCCOC(=O)c4ccc(N=C=S)cc4)[C@H]1CC[C@H]2[C@@]12CO[C@]3(O)[C@@H](O)[C@@H]1C(C)(C)CC[C@@H]2OC(C)=O	> 40 µM	9.99 µM	–	–	–
COc1cccc2c1C(=O)c1c(O)c3c(c(O)c1C2=O)C[C@@](O)(C(=O)CO)C[C@@H]3O[C@H]1C[C@H](N)[C@H](O)[C@H](C)O1 [DOXORUBICIN]	–	–	1.19 µM	–	1.16 µM
C=C1C(=O)[C@]23[C@H](OC(=O)CCC(=O)OCCOC(=O)c4ccc(N=C=S)cc4)[C@H]1CC[C@H]2[C@@]12CO[C@]3(O)[C@@H](O)[C@@H]1C(C)(C)CC[C@@H]2OC(C)=O	21.2 µM	8.8 µM	–	–	–
C=C1C(=O)[C@]23[C@H](O)[C@H]1CC[C@H]2[C@@]12CO[C@]3(O)[C@@H](O)[C@@H]1C(C)(C)CC[C@@H]2O [ORIDONIN]	14.9 µM	16 µM	19.1 µM	28.1 µM	5.97 µM
C=C1C(=O)[C@]23[C@H](OC(=O)CCC(=O)OCCOC(=O)c4ccc(N=C=S)cc4)[C@H]1CC[C@H]2[C@@]12CO[C@]3(O)[C@@H](O)[C@@H]1C(C)(C)CC[C@@H]2O	> 40 µM	> 40 µM	–	–	–
C=C1C(=O)[C@]23[C@H](OC(=O)CCCC(=O)OCC#CCOC(=O)c4ccc(N=C=S)cc4)[C@H]1CC[C@H]2[C@@]12CO[C@]3(O)[C@@H](O)[C@@H]1C(C)(C)CC[C@@H]2OC(C)=O	> 40 µM	12.8 µM	–	–	–
C=C1C(=O)[C@]23[C@H](O)[C@H]1CC[C@H]2[C@@]12CO[C@@]3(O)[C@@H](O)[C@@H]1C(C)(C)CC[C@@H]2OC(C)=O	5.47 µM	8.76 µM	–	–	–
C=C1C(=O)[C@]23[C@H](OC(=O)CCC(=O)Oc4ccc(-c5nc(=O)ss5)cc4)[C@H]1CC[C@H]2[C@@]12CO[C@]3(O)[C@@H](O)[C@@H]1C(C)(C)CC[C@@H]2O	24.2 µM	> 40 µM	–	–	–
C=C1C(=O)[C@]23[C@H](OC(=O)CCCC(=O)OCC#CCOC(=O)c4ccc(N=C=S)cc4)[C@H]1CC[C@H]2[C@@]12CO[C@]3(O)[C@@H](O)[C@@H]1C(C)(C)CCC2=O	> 40 µM	14 µM	–	–	–
C=C1C(=O)[C@]23[C@H](OC(=O)CCC(=O)OCCCOC(=O)c4ccc(N=C=S)cc4)[C@H]1CC[C@H]2[C@@]12CO[C@]3(O)[C@@H](O)[C@@H]1C(C)(C)CC[C@@H]2O	36.5 µM	> 40 µM	–	–	–
C=C1C(=O)[C@]23[C@H](OC(=O)CCCC(=O)OCCCCOC(=O)c4ccc(N=C=S)cc4)[C@H]1CC[C@H]2[C@@]12CO[C@]3(O)[C@@H](O)[C@@H]1C(C)(C)CC[C@@H]2O	> 40 µM	> 40 µM	–	–	–
C=C1C(=O)[C@]23[C@H](OC(=O)CCCC(=O)OCCOC(=O)c4ccc(N=C=S)cc4)[C@H]1CC[C@H]2[C@@]12CO[C@]3(O)[C@@H](O)[C@@H]1C(C)(C)CC[C@@H]2OC(C)=O	> 40 µM	8.7 µM	–	–	–
C=C1C(=O)[C@]23[C@H](OC(=O)CCCC(=O)OCCCCOC(=O)c4ccc(N=C=S)cc4)[C@H]1CC[C@H]2[C@@]12CO[C@]3(O)[C@@H](O)[C@@H]1C(C)(C)CCC2=O	24.4 µM	6.93 µM	18.8 µM	8.69 µM	11 µM
C=C1C(=O)[C@]23[C@H](OC(=O)CCC(=O)OCC#CCOC(=O)c4ccc(N=C=S)cc4)[C@H]1CC[C@H]2[C@@]12CO[C@]3(O)[C@@H](O)[C@@H]1C(C)(C)CCC2=O	> 40 µM	9.93 µM	–	–	–

SMILES	IC50 (A549)	IC50 (MCF7)	IC50 (PANC-1)	IC50 (HepG2)	IC50 (MIA PaCa-2)
C=C1C(=O)[C@]23[C@H](OC(=O)CCC(=O)OCCOC(=O)c4ccc(N=C=S)cc4)[C@H]1CC[C@H]2[C@@]12CO[C@]3(O)[C@@H](O)[C@@H]1C(C)(C)CCC2=O	32.2 µM	16.7 µM	–	–	–
C=C1C(=O)[C@]23[C@H](OC(=O)CCC(=O)OCCCCOC(=O)c4ccc(N=C=S)cc4)[C@H]1CC[C@H]2[C@@]12CO[C@]3(O)[C@@H](O)[C@@H]1C(C)(C)CC[C@@H]2O	> 40 µM	> 40 µM	–	–	–
C=C1C(=O)[C@]23[C@H](OC(=O)CCCC(=O)OCc4ccc(-c5nc(=O)ss5)cc4)[C@H]1CC[C@H]2[C@@]12CO[C@]3(O)[C@@H](O)[C@@H]1C(C)(C)CCC2=O	28.5 µM	> 40 µM	–	–	–
C=C1C(=O)[C@]23[C@H](OC(=O)CCC(=O)Oc4ccc(-c5nc(=O)ss5)cc4)[C@H]1CC[C@H]2[C@@]12CO[C@]3(O)[C@@H](O)[C@@H]1C(C)(C)CC[C@@H]2OC(C)=O	15.2 µM	15.4 µM	–	–	–
C=C1C(=O)[C@]23[C@H](OC(=O)c4ccc(N=C=S)cc4)[C@H]1CC[C@H]2[C@@]12CO[C@]3(O)[C@@H](O)[C@@H]1C(C)(C)CCC2=O	21.2 µM	7.08 µM	–	–	–
C=C1C(=O)[C@]23[C@H](OC(=O)CCC(=O)OCCCOC(=O)c4ccc(N=C=S)cc4)[C@H]1CC[C@H]2[C@@]12CO[C@]3(O)[C@@H](O)[C@@H]1C(C)(C)CC[C@@H]2OC(C)=O	24.9 µM	8.45 µM	–	–	–
O=c1nc(-c2ccc(O)cc2)ss1	> 40 µM	> 40 µM	–	–	–
C=C1C(=O)[C@]23[C@H](O)[C@H]1CC[C@H]2[C@@]12CO[C@]3(O)[C@@H](O)[C@@H]1C(C)(C)CCC2=O	6.84 µM	13.5 µM	–	–	–
C=C1C(=O)[C@]23[C@H](OC(=O)CCC(=O)OCC#CCOC(=O)c4ccc(N=C=S)cc4)[C@H]1CC[C@H]2[C@@]12CO[C@]3(O)[C@@H](O)[C@@H]1C(C)(C)CC[C@@H]2O	> 40 µM	> 40 µM	–	–	–
C=C1C(=O)[C@]23[C@H](OC(=O)CCCC(=O)OCCOC(=O)c4ccc(N=C=S)cc4)[C@H]1CC[C@H]2[C@@]12CO[C@]3(O)[C@@H](O)[C@@H]1C(C)(C)CC[C@@H]2O	> 40 µM	> 40 µM	–	–	–
C=C1C(=O)[C@]23[C@H](OC(=O)CCCC(=O)OCCCOC(=O)c4ccc(N=C=S)cc4)[C@H]1CC[C@H]2[C@@]12CO[C@]3(O)[C@@H](O)[C@@H]1C(C)(C)CCC2=O	23.2 µM	8.43 µM	–	–	–
C=C1C(=O)[C@]23[C@H](OC(=O)c4ccc(N=C=S)cc4)[C@H]1CC[C@H]2[C@@]12CO[C@]3(O)[C@@H](O)[C@@H]1C(C)(C)CC[C@@H]2OC(C)=O	28.1 µM	13 µM	–	–	–
C=C1C(=O)[C@]23[C@H](OC(=O)CCCC(=O)OCCCOC(=O)c4ccc(N=C=S)cc4)[C@H]1CC[C@H]2[C@@]12CO[C@]3(O)[C@@H](O)[C@@H]1C(C)(C)CC[C@@H]2O	> 40 µM	> 40 µM	–	–	–
C=C1C(=O)[C@]23[C@H](OC(=O)CCC(=O)OCCCCOC(=O)c4ccc(N=C=S)cc4)[C@H]1CC[C@H]2[C@@]12CO[C@]3(O)[C@@H](O)[C@@H]1C(C)(C)CCC2=O	26.6 µM	8.08 µM	–	–	–
C=C1C(=O)[C@]23[C@H](OC(=O)CCC(=O)Oc4ccc(-c5nc(=O)ss5)cc4)[C@H]1CC[C@H]2[C@@]12CO[C@]3(O)[C@@H](O)[C@@H]1C(C)(C)CCC2=O	18.3 µM	19.1 µM	–	–	–
C=C1C(=O)[C@]23[C@H](OC(=O)CCC(=O)OCC#CCOC(=O)c4ccc(N=C=S)cc4)[C@H]1CC[C@H]2[C@@]12CO[C@]3(O)[C@@H](O)[C@@H]1C(C)(C)CC[C@@H]2OC(C)=O	> 40 µM	4.49 µM	> 40 µM	7.65 µM	28.7 µM
C=C1C(=O)[C@]23[C@H](OC(=O)CCCC(=O)OCCCOC(=O)c4ccc(N=C=S)cc4)[C@H]1CC[C@H]2[C@@]12CO[C@]3(O)[C@@H](O)[C@@H]1C(C)(C)CC[C@@H]2OC(C)=O	> 40 µM	6.98 µM	24.8 µM	> 40 µM	14.9 µM
C=C1C(=O)[C@]23[C@H](OC(=O)CCC(=O)OCCCCOC(=O)c4ccc(N=C=S)cc4)[C@H]1CC[C@H]2[C@@]12CO[C@]3(O)[C@@H](O)[C@@H]1C(C)(C)CC[C@@H]2OC(C)=O	> 40 µM	11.6 µM	–	–	–
C=C1C(=O)[C@]23[C@H](OC(=O)CCCC(=O)OCc4ccc(-c5nc(=O)ss5)cc4)[C@H]1CC[C@H]2[C@@]12CO[C@]3(O)[C@@H](O)[C@@H]1C(C)(C)CC[C@@H]2O	> 40 µM	> 40 µM	–	–	–
